# According to publication PMC7339578, “Multiple circulating alkaloids and saponins from intravenous Kang-Ai injection inhibit human cytochrome P450 and UDP-glucuronosyltransferase isozymes: potential drug–drug interactions” (Chinese Medicine, 2020):
# Where two headings read alike, the source gives them in different places.
# Experiments:
# [1] = Protein binding assay (equilibrium dialysis); assay type: in vitro ADME, rat
# In short: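 Rat plasma binding was measured by equilibrium dialysis (12–14 kDa cutoff membrane), equilibrated 24 h at 37 °C and 55 rpm. Alkaloids were tested at 2 μmol/L and saponins at 4 μmol/L. Unbound fraction = dialysate concentration/post-dialysis plasma concentration × 100%.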
# CYP2C8 = biological target: T1, CYP2C8 (Homo sapiens, UniProt P10632); assay: Inhibition of recombinant CYP2C8 (probe paclitaxel); assay type: in vitro ADME
# T1 sequence (P10632 1-490): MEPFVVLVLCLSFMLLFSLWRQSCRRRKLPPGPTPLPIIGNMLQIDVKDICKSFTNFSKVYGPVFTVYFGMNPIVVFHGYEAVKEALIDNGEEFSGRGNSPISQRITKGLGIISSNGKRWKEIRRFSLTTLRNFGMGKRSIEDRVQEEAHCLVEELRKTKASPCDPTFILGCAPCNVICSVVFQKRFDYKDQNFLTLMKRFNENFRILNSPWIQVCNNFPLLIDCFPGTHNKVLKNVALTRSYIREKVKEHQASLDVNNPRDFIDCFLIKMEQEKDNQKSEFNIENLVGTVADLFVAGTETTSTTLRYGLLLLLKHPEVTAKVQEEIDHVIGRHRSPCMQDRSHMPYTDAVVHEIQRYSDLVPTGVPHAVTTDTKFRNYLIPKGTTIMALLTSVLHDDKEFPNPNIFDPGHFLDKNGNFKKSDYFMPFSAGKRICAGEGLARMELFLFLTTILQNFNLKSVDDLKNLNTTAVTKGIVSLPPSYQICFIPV
# Procedure: (§1) In this study, phenacetin (100 μM), coumarin (100 μM), bupropion (100 μM), paclitaxel (60 μM), tolbutamide (200 μM), mephenytoin (100 μM), chlorzoxazone (200 μM) and nifedipine (40 μM) have been used as the probe substrates for CYP1A2, 2A6, 2B6, 2C8, 2C9, 2C19, 2E1 and 3A4, respectively.
# CYP2C19 = CYP2C19 (Homo sapiens, UniProt P33261); assay: Inhibition of recombinant CYP2C19 (probe mephenytoin); assay type: in vitro ADME
# Procedure: as §1
# CYP2E1 = CYP2E1 (Homo sapiens, UniProt P05181); assay: Inhibition of recombinant CYP2E1 (probe chlorzoxazone)
# Procedure: Phase I incubation system (100 μL) contained Tris–HCl buffer (50 mM, pH = 7.4), MgCl2 (5 mM), each CYP isozyme, specific substrates, circulating compounds and NADPH (1 mM) as prescribed previously. After incubation (37 °C, 60 min), the reaction was terminated by ice-cold acetonitrile (100 μL), following by centrifugation at 13,800g for 10 min. The supernatant (8 μL) was acquired for ultra-high-performance liquid chromatography (UHPLC) system (Waters, Manchester, UK) analysis.
# After optimization of incubation conditions (Additional file 1: Fig. S1), the substrates were incubated with each CYP isozyme at different protein concentrations (0.05 mg/mL for CYP1A2 and 3A4; 0.1 mg/mL for CYP2A6, 2B6, 2C8, 2C9, 2C19 and 2E1) in the absence (control) and presence of different mixture or herbal compounds (Kang-Ai injection and samples that Kang-Ai injection was diluted 10 times; 1, 10, and 100 μM for matrine and oxymatrine; 0.1, 1, 10 and 100 μM for astragalosides and ginsenosides).
# The half-inhibition concentration (IC50) values were determined by non-linear regression analysis. […] The inhibition mechanism towards corresponding CYP and UGT isoforms were further explored.
# The inhibition constant (Ki) values were obtained by multiple concentrations of substrates in the absence or presence of multiple concentrations of herbal compounds as described previously. […] (1)–(3), respectively. The model with the smallest Akaike information criterion (AIC) and Schwartz information criterion (SC) values was considered as the best model, following the obtained appropriate Ki values. Model fitting and parameter estimation were performed using Graphpad Prism V5 software (SanDiego, CA).
# UGT2B7 = biological target: T2, UGT2B7 (Homo sapiens, UniProt P16662); assay: Inhibition of expressed UGT2B7 (probe 4-MU); assay type: in vitro ADME
# T2 sequence (P16662 24-529): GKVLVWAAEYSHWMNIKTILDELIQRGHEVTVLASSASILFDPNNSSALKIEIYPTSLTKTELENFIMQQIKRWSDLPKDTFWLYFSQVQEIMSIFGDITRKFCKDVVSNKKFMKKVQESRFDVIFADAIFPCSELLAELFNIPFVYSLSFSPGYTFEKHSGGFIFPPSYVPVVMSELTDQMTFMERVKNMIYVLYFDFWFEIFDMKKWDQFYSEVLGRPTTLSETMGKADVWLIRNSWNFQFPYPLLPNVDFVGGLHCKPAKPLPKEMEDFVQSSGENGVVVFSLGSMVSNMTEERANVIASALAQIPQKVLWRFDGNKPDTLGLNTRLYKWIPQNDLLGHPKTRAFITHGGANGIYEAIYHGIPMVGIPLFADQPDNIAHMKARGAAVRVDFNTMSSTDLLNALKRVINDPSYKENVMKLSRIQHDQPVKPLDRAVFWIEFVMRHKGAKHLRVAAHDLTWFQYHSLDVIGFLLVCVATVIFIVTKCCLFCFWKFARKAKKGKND
# Procedure: After centrifugation (13,800g, 10 min), the supernatant (8 μL) was obtained for determination by UHPLC system.
# Similarly, β-estradiol (60 μM), propofol (40 μM) and 4-MU (350 μM) were typically used as the substrates for UGT1A1, 1A9 and 2B7, respectively. After optimization of incubation conditions (Additional file 1: Fig. S2), the protein concentrations for UGT1A1, 1A9, and 2B7 were 0.125, 0.05, and 0.05 mg/mL, respectively.
# [2] = recombinant isozyme, mean ± SD of triplicate, unit not given (IC50 classes in μM), read-out: IC50 towards CYP2C8
# [3] = recombinant isozyme, mean ± SD of triplicate, unit not given (IC50 classes in μM), read-out: IC50 towards CYP2C19
# [4] = recombinant isozyme, mean ± SD of triplicate, unit not given (IC50 classes in μM), read-out: IC50 towards UGT2B7
# [5] = rat plasma, equilibrium dialysis 24 h, 37 °C, 2 μmol/L alkaloids, 4 μmol/L saponins, read-out: fu-plasma (unbound fraction)
# Chain of CYP2E1 (P05181 whole entry): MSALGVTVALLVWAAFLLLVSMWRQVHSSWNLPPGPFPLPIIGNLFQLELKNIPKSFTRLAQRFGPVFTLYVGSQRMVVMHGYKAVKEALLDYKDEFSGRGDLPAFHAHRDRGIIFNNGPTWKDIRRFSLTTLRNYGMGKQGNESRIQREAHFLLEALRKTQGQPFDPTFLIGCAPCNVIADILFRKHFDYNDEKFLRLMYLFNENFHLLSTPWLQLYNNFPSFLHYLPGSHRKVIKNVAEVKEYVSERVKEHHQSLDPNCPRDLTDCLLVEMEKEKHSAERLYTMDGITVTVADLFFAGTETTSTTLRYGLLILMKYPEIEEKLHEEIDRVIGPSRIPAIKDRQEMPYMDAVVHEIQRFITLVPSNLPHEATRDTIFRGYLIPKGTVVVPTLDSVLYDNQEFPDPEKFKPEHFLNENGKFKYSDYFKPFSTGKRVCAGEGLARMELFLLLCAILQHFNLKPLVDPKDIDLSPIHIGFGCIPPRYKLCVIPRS
# Chain of CYP2C19 (P33261 whole entry): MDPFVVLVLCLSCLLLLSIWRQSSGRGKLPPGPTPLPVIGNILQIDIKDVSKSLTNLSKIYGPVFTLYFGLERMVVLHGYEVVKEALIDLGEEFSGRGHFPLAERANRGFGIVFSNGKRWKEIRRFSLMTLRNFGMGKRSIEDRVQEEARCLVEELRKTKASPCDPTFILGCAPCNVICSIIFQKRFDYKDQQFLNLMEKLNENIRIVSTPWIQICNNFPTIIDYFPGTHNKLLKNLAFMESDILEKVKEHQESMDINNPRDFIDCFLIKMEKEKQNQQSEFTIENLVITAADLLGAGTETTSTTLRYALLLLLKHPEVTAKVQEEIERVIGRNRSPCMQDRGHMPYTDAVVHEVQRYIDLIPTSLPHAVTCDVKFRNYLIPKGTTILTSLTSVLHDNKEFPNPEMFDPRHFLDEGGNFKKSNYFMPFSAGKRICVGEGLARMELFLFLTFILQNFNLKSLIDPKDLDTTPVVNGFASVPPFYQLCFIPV
Compound,IC50 (CYP2C8; [2]) [µM],IC50 (CYP2C19; [3]) [µM],IC50 (UGT2B7; [4]) [µM],"fraction unbound at 24 h [1, 5]",IC50 (CYP2E1) [µM],other results
"CC(C)(O)[C@@H]1CC[C@](C)([C@H]2[C@@H](O)C[C@@]3(C)[C@@H]4C[C@H](O[C@@H]5O[C@H](CO)[C@@H](O)[C@H](O)[C@H]5O)[C@H]5C(C)(C)[C@@H](O[C@@H]6OC[C@@H](O)[C@H](O)[C@H]6O)CC[C@@]56C[C@@]46CC[C@]23C)O1 [Compound B2, Astragaloside IV]",> 100,> 100,> 100,–,–,"bound in rat plasma ([1]; rat plasma, equilibrium dialysis): ~90%; fu-plasma (unbound fraction) ([1]; rat plasma, equilibrium dialysis 24 h, 37 °C, 2 μmol/L alkaloids, 4 μmol/L saponins): 12.35 ± 1.02%; IC50 (CYP2E1; read-out: IC50 towards CYP2E1, recombinant isozyme, mean ± SD of triplicate, unit not given (IC50 classes in μM)): > 100 µM"
"CC(C)=CCC[C@](C)(O[C@@H]1O[C@H](CO)[C@@H](O)[C@H](O)[C@H]1O)[C@H]1CC[C@]2(C)[C@@H]1[C@H](O)C[C@@H]1[C@@]3(C)CC[C@H](O[C@@H]4O[C@H](CO)[C@@H](O)[C@H](O)[C@H]4O[C@@H]4O[C@H](CO)[C@@H](O)[C@H](O)[C@H]4O)C(C)(C)[C@@H]3CC[C@]12C [Compound D2, Ginsenoside Rd]",> 100,> 100,> 100,0.0075 ± 0.0008,> 100,–
"CC(C)=CCC[C@](C)(O[C@@H]1O[C@H](CO[C@@H]2O[C@H](CO)[C@@H](O)[C@H](O)[C@H]2O)[C@@H](O)[C@H](O)[C@H]1O)[C@H]1CC[C@]2(C)[C@@H]1[C@H](O)C[C@@H]1[C@@]3(C)CC[C@H](O[C@@H]4O[C@H](CO)[C@@H](O)[C@H](O)[C@H]4O[C@@H]4O[C@H](CO)[C@@H](O)[C@H](O)[C@H]4O)C(C)(C)[C@@H]3CC[C@]12C [Compound D5, Ginsenoside Rb1]",> 100,> 100,> 100,0.0096 ± 0.0009,> 100,–
"CC(C)=CCC[C@](C)(O)[C@H]1CC[C@]2(C)[C@@H]1[C@H](O)C[C@@H]1[C@@]3(C)CC[C@H](O)C(C)(C)[C@@H]3[C@@H](O[C@@H]3O[C@H](CO)[C@@H](O)[C@H](O)[C@H]3O[C@@H]3O[C@H](CO)[C@@H](O)[C@H](O)[C@H]3O)C[C@]12C [Compound C7, Ginsenoside Rf]",> 100,> 100,> 100,–,> 100,"fraction unbound at 24 h ([1]; rat, plasma): 0.602 ± 0.0701"
"O=C1CCC[C@@H]2[C@H]3CCCN4CCC[C@@H](CN12)[C@@H]34 [Compound A1, Matrine]",–,–,–,0.927 ± 0.0681,> 100,IC50 (CYP2C8): > 100 µM; IC50 (CYP2C19): > 100 µM; IC50 (UGT2B7): > 100 µM
"CC(C)=CCC[C@](C)(O[C@@H]1O[C@H](CO)[C@@H](O)[C@H](O)[C@H]1O)[C@H]1CC[C@]2(C)[C@@H]1[C@H](O)C[C@@H]1[C@@]3(C)CC[C@H](O)C(C)(C)[C@@H]3[C@@H](O[C@@H]3O[C@H](CO)[C@@H](O)[C@H](O)[C@H]3O[C@@H]3O[C@@H](C)[C@H](O)[C@@H](O)[C@H]3O)C[C@]12C [Compound C9, Ginsenoside Re]",24 ± 10.7,> 100,> 100,0.874 ± 0.0659,> 100,"inhibition type (smallest AIC and SC) (CYP2C8; CYP2C8): mixed-type inhibition; Ki (CYP2C8; CYP2C8, competitive model): 8.2 ± 1.1 µM; Ki (CYP2C8; CYP2C8, mixed-type model): 13.3 ± 2.9 µM; α (CYP2C8; CYP2C8, mixed-type model): 4.2 ± 2.3; Ki (CYP2C8; CYP2C8, noncompetitive model): 26.5 ± 2.2 µM; Cmax/Ki ([I]/Ki) (CYP2C8; CYP2C8, selected model, rat plasma Cmax): 0.1; IC50 (CYP2C8; paclitaxel 60 μM, read-out: IC50 towards CYP2C8): 24 µM"
"CC(C)=CCC[C@](C)(O[C@@H]1O[C@H](CO)[C@@H](O)[C@H](O)[C@H]1O)[C@H]1CC[C@]2(C)[C@@H]1[C@H](O)C[C@@H]1[C@@]3(C)CC[C@H](O)C(C)(C)[C@@H]3[C@@H](O[C@@H]3O[C@H](CO)[C@@H](O)[C@H](O)[C@H]3O)C[C@]12C [Compound C6, Ginsenoside Rg1]",> 100,> 100,> 100,0.863 ± 0.0732,> 100,–
"CC(C)=CCC[C@](C)(O[C@@H]1O[C@H](CO[C@@H]2O[C@@H](CO)[C@H](O)[C@H]2O)[C@@H](O)[C@H](O)[C@H]1O)[C@H]1CC[C@]2(C)[C@@H]1[C@H](O)C[C@@H]1[C@@]3(C)CC[C@H](O[C@@H]4O[C@H](CO)[C@@H](O)[C@H](O)[C@H]4O[C@@H]4O[C@H](CO)[C@@H](O)[C@H](O)[C@H]4O)C(C)(C)[C@@H]3CC[C@]12C [Compound D3, Ginsenoside Rc]",> 100,> 100,> 100,0.0112 ± 0.0012,> 100,–
"O=C1CCC[C@@H]2[C@H]3CCC[N+]4([O-])CCC[C@@H](CN12)[C@@H]34 (some centres unmarked) [Compound A3, Oxymatrine]",–,–,–,–,> 100,"fraction unbound at 24 h ([1]; rat, plasma): 0.932 ± 0.0652; IC50 (CYP2C8; IC50 towards CYP2C8, recombinant isozyme, mean ± SD of triplicate, unit not given (IC50 classes in μM)): > 100 µM; IC50 (CYP2C19): > 100 µM; IC50 (UGT2B7): > 100 µM"
